These results are taken from ChEMBL document CHEMBL5291721, “A preclinical secondary pharmacology resource illuminates target-adverse drug reaction associations of marketed drugs” (Nat Commun, 2023).

Each structure is given as a SMILES string.

Experiment [1] addresses T1, Endothelin-1 receptor (Homo sapiens, UniProt P25101).
T1 sequence (P25101 whole entry): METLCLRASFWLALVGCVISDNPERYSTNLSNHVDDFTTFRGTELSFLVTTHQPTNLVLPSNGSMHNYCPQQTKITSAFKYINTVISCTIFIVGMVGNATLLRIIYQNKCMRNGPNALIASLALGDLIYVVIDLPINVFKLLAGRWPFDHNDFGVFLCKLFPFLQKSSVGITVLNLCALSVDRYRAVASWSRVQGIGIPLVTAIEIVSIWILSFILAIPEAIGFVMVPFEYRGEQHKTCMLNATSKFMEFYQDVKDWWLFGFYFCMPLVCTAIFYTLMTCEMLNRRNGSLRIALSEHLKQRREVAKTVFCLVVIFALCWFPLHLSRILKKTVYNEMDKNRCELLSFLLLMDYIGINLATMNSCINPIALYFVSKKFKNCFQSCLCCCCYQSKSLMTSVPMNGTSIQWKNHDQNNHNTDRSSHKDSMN

Experiment [2] concerns the target T2, Progesterone receptor (Homo sapiens, UniProt P06401).
T2 sequence (P06401 whole entry): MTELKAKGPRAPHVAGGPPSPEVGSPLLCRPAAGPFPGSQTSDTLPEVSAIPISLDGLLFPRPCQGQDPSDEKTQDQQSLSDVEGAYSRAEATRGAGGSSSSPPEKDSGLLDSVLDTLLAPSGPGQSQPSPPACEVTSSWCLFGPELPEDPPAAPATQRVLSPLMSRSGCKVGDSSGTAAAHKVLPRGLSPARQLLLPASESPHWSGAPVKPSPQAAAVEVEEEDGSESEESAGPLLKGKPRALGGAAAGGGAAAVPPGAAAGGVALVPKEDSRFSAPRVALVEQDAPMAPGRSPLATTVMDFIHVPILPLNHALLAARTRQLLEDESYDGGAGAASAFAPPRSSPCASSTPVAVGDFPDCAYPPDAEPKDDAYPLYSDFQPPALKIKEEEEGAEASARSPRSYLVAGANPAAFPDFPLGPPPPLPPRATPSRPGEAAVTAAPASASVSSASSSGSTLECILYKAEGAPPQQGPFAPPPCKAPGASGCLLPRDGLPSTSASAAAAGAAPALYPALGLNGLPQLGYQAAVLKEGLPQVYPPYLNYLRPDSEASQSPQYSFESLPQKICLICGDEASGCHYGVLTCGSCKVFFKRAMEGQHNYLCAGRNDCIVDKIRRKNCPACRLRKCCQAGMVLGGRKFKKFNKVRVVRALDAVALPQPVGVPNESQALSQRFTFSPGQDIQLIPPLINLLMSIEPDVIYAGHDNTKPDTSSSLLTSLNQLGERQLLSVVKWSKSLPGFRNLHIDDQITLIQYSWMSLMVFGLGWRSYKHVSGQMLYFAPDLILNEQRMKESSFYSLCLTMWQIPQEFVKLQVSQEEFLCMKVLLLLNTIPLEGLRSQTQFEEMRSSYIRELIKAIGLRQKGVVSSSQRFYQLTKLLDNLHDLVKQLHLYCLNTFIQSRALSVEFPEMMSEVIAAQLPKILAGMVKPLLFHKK
The experiment is classed as functional.

Experiment [3] addresses Cannabinoid receptor 1 (Homo sapiens, UniProt P21554). The format is functional, cell-based.
In experiment [4] the target is T3, B2 bradykinin receptor (Homo sapiens, UniProt P30411).
T3 sequence (P30411 whole entry): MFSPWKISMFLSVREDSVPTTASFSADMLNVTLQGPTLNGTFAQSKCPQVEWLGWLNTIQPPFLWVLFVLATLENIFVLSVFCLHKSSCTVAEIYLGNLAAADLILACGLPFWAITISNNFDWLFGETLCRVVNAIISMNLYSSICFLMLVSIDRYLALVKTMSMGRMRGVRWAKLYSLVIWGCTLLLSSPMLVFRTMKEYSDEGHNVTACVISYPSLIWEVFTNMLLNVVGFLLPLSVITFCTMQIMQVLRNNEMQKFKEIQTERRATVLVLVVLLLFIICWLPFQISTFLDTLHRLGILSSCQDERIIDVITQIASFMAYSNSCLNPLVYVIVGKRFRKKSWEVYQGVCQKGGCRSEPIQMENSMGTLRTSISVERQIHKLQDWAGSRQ

The target of experiment [5] is Beta-2 adrenergic receptor (Homo sapiens, UniProt P07550).
Experiment [6] has as its target Melanocortin receptor 4 (Homo sapiens, UniProt P32245).
Experiment [7] addresses Histamine H1 receptor (Homo sapiens, UniProt P35367).
Note: assay procedure not described here.

Sequence of Beta-2 adrenergic receptor (P07550 whole entry): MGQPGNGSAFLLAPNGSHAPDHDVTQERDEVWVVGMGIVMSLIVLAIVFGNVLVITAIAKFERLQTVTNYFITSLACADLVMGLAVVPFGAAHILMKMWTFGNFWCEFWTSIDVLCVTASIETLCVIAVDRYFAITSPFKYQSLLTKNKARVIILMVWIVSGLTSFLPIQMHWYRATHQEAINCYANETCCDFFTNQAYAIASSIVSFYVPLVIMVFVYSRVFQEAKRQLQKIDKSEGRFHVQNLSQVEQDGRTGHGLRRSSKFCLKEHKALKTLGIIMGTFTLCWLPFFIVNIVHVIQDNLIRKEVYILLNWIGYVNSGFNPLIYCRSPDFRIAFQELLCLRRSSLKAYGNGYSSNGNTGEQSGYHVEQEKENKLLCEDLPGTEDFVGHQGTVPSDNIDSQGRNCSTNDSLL
Sequence of Melanocortin receptor 4 (P32245 whole entry): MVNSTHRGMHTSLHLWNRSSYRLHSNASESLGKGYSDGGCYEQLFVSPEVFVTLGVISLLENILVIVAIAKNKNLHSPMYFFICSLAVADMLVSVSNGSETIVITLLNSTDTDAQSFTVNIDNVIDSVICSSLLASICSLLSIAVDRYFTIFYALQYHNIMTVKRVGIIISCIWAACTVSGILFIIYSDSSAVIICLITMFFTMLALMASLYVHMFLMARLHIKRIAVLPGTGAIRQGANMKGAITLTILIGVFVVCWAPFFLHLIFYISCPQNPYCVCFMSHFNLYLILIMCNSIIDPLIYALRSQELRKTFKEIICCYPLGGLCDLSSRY
Sequence of Histamine H1 receptor (P35367 whole entry): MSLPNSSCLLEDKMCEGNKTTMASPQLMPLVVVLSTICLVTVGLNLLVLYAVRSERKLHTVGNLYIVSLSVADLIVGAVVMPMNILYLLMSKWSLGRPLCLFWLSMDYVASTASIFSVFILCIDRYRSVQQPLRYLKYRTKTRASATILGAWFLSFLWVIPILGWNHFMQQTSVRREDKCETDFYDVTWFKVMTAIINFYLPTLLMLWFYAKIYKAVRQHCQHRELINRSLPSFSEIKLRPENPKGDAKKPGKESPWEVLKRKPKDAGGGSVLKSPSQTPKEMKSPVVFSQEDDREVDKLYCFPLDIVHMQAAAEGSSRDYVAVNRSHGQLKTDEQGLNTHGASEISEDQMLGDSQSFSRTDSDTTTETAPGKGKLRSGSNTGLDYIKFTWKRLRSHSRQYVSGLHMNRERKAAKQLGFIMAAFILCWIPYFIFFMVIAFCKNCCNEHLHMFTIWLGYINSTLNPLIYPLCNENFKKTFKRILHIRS
Sequence of Cannabinoid receptor 1 (P21554 whole entry): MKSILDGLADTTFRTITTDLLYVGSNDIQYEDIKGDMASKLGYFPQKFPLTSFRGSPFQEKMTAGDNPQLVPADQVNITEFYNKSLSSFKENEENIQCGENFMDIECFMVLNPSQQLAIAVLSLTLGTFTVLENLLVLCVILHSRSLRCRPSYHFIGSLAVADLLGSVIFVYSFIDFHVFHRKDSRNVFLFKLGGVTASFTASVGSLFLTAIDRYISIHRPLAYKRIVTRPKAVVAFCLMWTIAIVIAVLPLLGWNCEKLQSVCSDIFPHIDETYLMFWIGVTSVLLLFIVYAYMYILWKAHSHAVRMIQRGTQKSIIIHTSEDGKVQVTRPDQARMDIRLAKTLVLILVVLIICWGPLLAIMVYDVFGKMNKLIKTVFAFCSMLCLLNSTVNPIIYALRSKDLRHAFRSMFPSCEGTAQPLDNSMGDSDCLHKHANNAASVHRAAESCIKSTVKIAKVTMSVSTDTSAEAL

For `Cn1nnc2c(C(N)=O)ncn2c1=O` [TEMOZOLOMIDE], the AC50 in experiment [1] is more than 30 µM; in experiment [2], more than 30 µM; in experiment [3], more than 30 µM; in experiment [4], more than 30 µM; in experiment [5], more than 10 µM; in experiment [6] it was more than 30 µM. In experiment [7], this molecule gave an AC50 of more than 30 µM.
